The test system of the test is senescent IMR90 ER:RAS cells (4-OHT-induced). The experiment in a line: Nuclei count (Hoechst, high content imaging) senolytic assay, oncogene-induced senescence (OIS) model, senescent cells. The conditions noted are these: for viability at 10 µM / viability at 4.677 µM / viability at 2.188 µM / viability at 1 µM / viability at 0.4677 µM / viability at 0.2188 µM / viability at 0.1 µM / viability at 0.04677 µM / viability at 0.02188 µM / viability at 0.01 µM: Homo sapiens. The class given is cell-based, human. The method, boiled down:
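IMR90 ER:RAS (p14), ±4-OHT 100 nM; cpd 10 nM–10 μM, 10-pt […], 72 h, n=3. Fix formaldehyde, Triton X-100, Hoechst 2 μg/ml final. Readout: imaged nuclei count vs untreated; ouabain positive control.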

Setting [1] is: IMR-90, 72 h, Senescent, log (dose) [M] -5, 72 h, mean n=3 (Fig 3C), read-out: Mean % Cell Survival.
Setting [2] is: IMR-90, 72 h, Senescent, log (dose) [M] -5.33, 72 h, mean n=3 (Fig 3C), read-out: Mean % Cell Survival.
[3] abbreviates: IMR-90, 72 h, Senescent, log (dose) [M] -5.66, 72 h, mean n=3 (Fig 3C), read-out: Mean % Cell Survival.
Setting [4] is: IMR-90, 72 h, Senescent, log (dose) [M] -6, 72 h, mean n=3 (Fig 3C), read-out: Mean % Cell Survival.
The mark [5] stands for this setting: IMR-90, 72 h, Senescent, log (dose) [M] -6.33, 72 h, mean n=3 (Fig 3C), read-out: Mean % Cell Survival.
Setting [6] is: IMR-90, 72 h, Senescent, log (dose) [M] -6.66, 72 h, mean n=3 (Fig 3C), read-out: Mean % Cell Survival.
Where [7] appears, read: IMR-90, 72 h, Senescent, log (dose) [M] -7, 72 h, mean n=3 (Fig 3C), read-out: Mean % Cell Survival.
Setting [8] is: IMR-90, 72 h, Senescent, log (dose) [M] -7.33, 72 h, mean n=3 (Fig 3C), read-out: Mean % Cell Survival.
Setting [9] is: IMR-90, 72 h, Senescent, log (dose) [M] -7.66, 72 h, mean n=3 (Fig 3C), read-out: Mean % Cell Survival.
The mark [10] stands for this setting: IMR-90, 72 h, Senescent, log (dose) [M] -8, 72 h, mean n=3 (Fig 3C), read-out: Mean % Cell Survival.

“And” between values parts separate entries of the source, which are not always exact repeats. Identical values can stand only once. Counter-ions that a name gives are not always drawn. Like-named read-outs stand apart in the source and are kept apart here.

With `C=Cc1c(C)c2cc3nc(cc4[nH]c(cc5nc(cc1[nH]2)C(C)=C5CCC(=O)O)c(CCC(=O)OC)c4C)[C@@]1(C)C3=CC=C(C(=O)OC)[C@H]1C(=O)OC` [Verteporfin, verteporfin, reference compound], the “% Cell Survival” value runs as follows: (Senescent cells, log (dose) [M] -5, individual replicates, SUP FIG 4C) 93.9435% and 91.1111% and 111.269%; (Senescent cells, log (dose) [M] -5.33, individual replicates, SUP FIG 4C) 81.5612% and 99.085% and 87.8238%; (Senescent cells, log (dose) [M] -5.66, individual replicates, SUP FIG 4C) 114.536% and 91.2418% and 98.8342%; (Senescent cells, log (dose) [M] -6, individual replicates, SUP FIG 4C) 68.7752% and 100.915% and 109.974%; (Senescent cells, log (dose) [M] -6.33, individual replicates, SUP FIG 4C) 85.8681% and 55.5556% and 108.549%; (Senescent cells, log (dose) [M] -6.66, individual replicates, SUP FIG 4C) 84.253% and 107.32% and 95.2073%. The “% Cell Survival” value was 86.541% and 87.8431% and 90.544% (Senescent cells, log (dose) [M] -7, individual replicates, SUP FIG 4C); 95.5585% and 120.915% and 93.9119% (Senescent cells, log (dose) [M] -7.33, individual replicates, SUP FIG 4C); 98.3849% and 123.268% and 87.8238% (Senescent cells, log (dose) [M] -7.66, individual replicates, SUP FIG 4C); 86.541% and 113.464% and 76.6839% (Senescent cells, log (dose) [M] -8, individual replicates, SUP FIG 4C); 113.825% and 103.66% and 137.931% (Senescent, log (dose) [M] -5); 79.9635% and 100.131% and 115.557% (Senescent, log (dose) [M] -5.33). The “% Cell Survival” value by setting is: (Senescent, log (dose) [M] -5.66) 102.923% and 109.085% and 134.403%; (Senescent, log (dose) [M] -6) 99.1474% and 91.7647% and 157.418%; (Senescent, log (dose) [M] -6.33) 98.8429% and 106.993% and 136.808%; (Senescent, log (dose) [M] -6.66) 92.57% and 116.536% and 113.873%; (Senescent, log (dose) [M] -7) 103.898% and 73.5294% and 123.657%; (Senescent, log (dose) [M] -7.33) 62.363% and 86.2092% and 118.605%. Also, the “% Cell Survival” value was 100.061% and 91.4379% and 129.27% (Senescent, log (dose) [M] -7.66); 96.6504% and 87.3856% and 116.84% (Senescent, log (dose) [M] -8). The “Mean % Cell Survival” value by setting is: (Senescent, log (dose) [M] -5, 72 h, mean n=3 (Fig 3C)) 98.7747%; (Senescent, log (dose) [M] -5.33, 72 h, mean n=3 (Fig 3C)) 89.49%; (Senescent, log (dose) [M] -5.66, 72 h, mean n=3 (Fig 3C)) 101.537%; (Senescent, log (dose) [M] -6, 72 h, mean n=3 (Fig 3C)) 93.2215%; (Senescent, log (dose) [M] -6.33, 72 h, mean n=3 (Fig 3C)) 83.3243%; (Senescent, log (dose) [M] -6.66, 72 h, mean n=3 (Fig 3C)) 95.5935%. For the same molecule, the “Mean % Cell Survival” value amounted to 88.3094% (Senescent, log (dose) [M] -7, 72 h, mean n=3 (Fig 3C)); 103.462% (Senescent, log (dose) [M] -7.33, 72 h, mean n=3 (Fig 3C)); 103.159% (Senescent, log (dose) [M] -7.66, 72 h, mean n=3 (Fig 3C)); 92.2297% (Senescent, log (dose) [M] -8, 72 h, mean n=3 (Fig 3C)).
For the molecule `CC[C@]1(O)C[C@@H]2CN(CCc3c([nH]c4ccccc34)[C@@](C(=O)OC)(c3cc4c(cc3OC)N(C)[C@H]3[C@@](O)(C(=O)OC)[C@H](OC(C)=O)[C@]5(CC)C=CCN6CC[C@]43[C@@H]65)C2)C1` [Vinblastine sulfate, vinblastine sulfate, reference compound], the viability at 10 µM is, setting by setting: under setting [1], 54.4%; (IMR-90, Senescent, log (dose) [M] -5, read-out: % Cell Survival) 89.1%. Further, the viability at 4.677 µM under setting [2] is 77.2% and the viability at 4.677 µM (IMR-90, Senescent, log (dose) [M] -5.33, read-out: % Cell Survival) was 88%. Moreover, the viability at 2.188 µM reads like this: under setting [3], 58.1%; (IMR-90, Senescent, log (dose) [M] -5.66, read-out: % Cell Survival) 86.9%. For the same molecule, the viability at 1 µM is, setting by setting: under setting [4], 67.1%; (IMR-90, Senescent cells, log (dose) [M] -6, individual replicates, SUP FIG 4C, read-out: % Cell Survival) 70.9%; (IMR-90, Senescent, log (dose) [M] -6, read-out: % Cell Survival) 68.2%. The viability at 0.4677 µM by setting is: under setting [5], 61.7%; (IMR-90, Senescent, log (dose) [M] -6.33, read-out: % Cell Survival) 96.2%. In addition, the viability at 0.2188 µM by setting is: under setting [6], 87%; (IMR-90, Senescent, log (dose) [M] -6.66, read-out: % Cell Survival) 103%. The viability at 0.1 µM runs as follows: under setting [7], 73.9%; (IMR-90, Senescent, log (dose) [M] -7, read-out: % Cell Survival) 109%. Also, the viability at 0.04677 µM runs as follows: under setting [8], 108%; (IMR-90, Senescent, log (dose) [M] -7.33, read-out: % Cell Survival) 92.4%. In addition, the viability at 0.02188 µM runs as follows: under setting [9], 59.7%; (IMR-90, Senescent, log (dose) [M] -7.66, read-out: % Cell Survival) 112%. The viability at 0.01 µM was found to be 92.6% under setting [10] and 114% (IMR-90, Senescent, log (dose) [M] -8, read-out: % Cell Survival).
`CO[C@H]1C[C@@H]2CC[C@@H](C)[C@@](O)(O2)C(=O)C(=O)N2CCCC[C@H]2C(=O)O[C@H]([C@H](C)C[C@@H]2CC[C@H](n3cnnn3)[C@H](OC)C2)CC(=O)[C@H](C)/C=C(\C)[C@@H](O)[C@@H](OC)C(=O)[C@H](C)C[C@H](C)/C=C/C=C/C=C/1C` [Zotarolimus, zotarolimus, reference compound]: the viability at 10 µM under setting [1] was determined as 111%. The viability at 4.677 µM under setting [2] worked out at 115%. Moreover, under setting [3], the viability at 2.188 µM turned out to be 102%. Besides, under setting [4], the viability at 1 µM turned out to be 113%. Besides, the viability at 0.4677 µM under setting [5] was found to be 95.4%. The viability at 0.2188 µM under setting [6] worked out at 95.9%. Moreover, the viability at 0.1 µM under setting [7] is 88.4%. Also, the viability at 0.04677 µM under setting [8] was 106%. The viability at 0.02188 µM under setting [9] was found to be 116%. The viability at 0.01 µM under setting [10] was 104%.
